Among the data in article PMC6826623 (2019) are Kb values, retold here.

Common to all, as to test: UV-Vis absorption titration at 316 nm
Assay [1] relates to 2HY9 (DNA, G4) AAAGGGTTAGGGTTAGGGTTAGGGAA
The following applies: 100 mM K+, 50 mM Tris-HCl, pH 7.4, hybrid G4, per base.

In assay [2] the test system is hTelo (DNA, G4) AGGGTTAGGGTTAGGGTTAGGG
The following applies: 50 mM Tris-HCl.

The subject of assay [3] is c-MYC (DNA, G4) TGGGGAGGGTGGGGAGGGTGGGGAAGG
The following applies: 100 mM K+, 50 mM Tris-HCl, pH 7.4, parallel G4, per base.

Take `COc1ccc2c(c[n+](C)c3c4cc5c(cc4ccc23)OCO5)c1OC`: the Kb result in assay [1] is on record as “(1.1 ± 0.1) × 10^5 M^-1”; in assay [2] (100 mM K+, pH 7.4, 40% (w/v) PEG 200, parallel G4, per base), “(3.5 ± 0.9) × 10^5 M^-1”; in assay [2] (100 mM Na+, pH 7.4, antiparallel G4, per base), “(2.69 ± 0.06) × 10^5 M^-1”; in assay [3], “(1.0 ± 0.1) × 10^5 M^-1”.
